Bounds are passed on as bounds.

For assay [1], the target named is T1, ROCK1 kinase (Homo sapiens, UniProt Q13464).
T1 construct: purchased Invitrogen
The experiment in a line: In vitro evaluation of ROCK1 kinase selectivity (HTRF KinEASE-STK time-resolved fluorometric assay). It counts as biochemical. Here is the method:
ROCK1 activity was detected using a 96-well (Cisbio) time-resolved fluorometric assay. The assay for ROCK1 was performed in the following assay buffer: 5 mM MgCl2 (Sigma), 1 mM DTT (Sigma) and 1× kinase buffer. The kinase buffer was used for dilution. 7.5 μL of ROCK1 kinase (Invitrogen) was added to a 96-well microplate to reach a final concentration of 0.4 ng/μL, and then 0.25 μL of test compound (DMSO content: 1%) was added. The mixture was incubated at room temperature for 0.5 h. To start the reaction, the kinase buffer was also used to mix ATP (Aladdin) and the substrate STK-substrate 2-biotin. 7.5 μL of the mixed solution was added to the microplate to reach final concentrations of 3.53 μM and 1 μM. The resulting mixture was incubated for 2 h at room temperature. […] was mixed with STK antibody-Cryptate, and then an appropriate volume of the mixture was mixed with an equal volume of streptavidin-XL665. 10 μL of the resulting mixture was added to stop the reaction. After further incubation for about 1 h, the microplate was read on a Molecular Devices SpectraMax i3x multifunctional microplate reader. The kinase buffer, the STK-substrate 2-biotin, the detection buffer, the STK antibody-Cryptate, and the streptavidin-XL665 were all from HTRF KinEASE-STK kit (Cisbio, 1000 tests, 61[…]).
(In general: In TR-FRET formats the signal depends on donor and acceptor labels being close together.)

Assay [2] has as its target T2, ROCK2 kinase (Homo sapiens, UniProt O75116).
T2 construct: purchased Invitrogen PV3759
The assay is described as follows: In vitro evaluation of ROCK2 kinase activity (HTRF KinEASE-STK time-resolved fluorometric assay). The class given is biochemical. The protocol:
ROCK2 activity screening. ROCK2 activity was detected using a 96-well (Cisbio) time-resolved fluorometric assay. The assay for ROCK2 was performed in the following assay buffer: 5 mM MgCl2 (Sigma), 1 mM DTT (Sigma) and 1× kinase buffer. The kinase buffer was used for dilution. 7.5 μL of ROCK2 kinase (Invitrogen, PV3759) was added to a 96-well microplate to reach a final concentration of 0.4 ng/μL, and then 0.25 μL of test compound (DMSO content: 1% (volume fraction)) was added. The mixture was incubated at room temperature for 0.5 h. To start the reaction, the kinase buffer was used to mix ATP (Aladdin) and the substrate STK-substrate 2-biotin. 7.5 μL of the mixed solution was added to the microplate to reach final concentrations of 6.739 μM and 1 μM. The resulting mixture was incubated for 2 h at room temperature. 5 mL of detection buffer was mixed with STK antibody-Cryptate, and then an appropriate volume of the mixture was mixed with an equal volume of streptavidin-XL665. 10 μL of the resulting mixture was added to the microplate to stop the reaction. After further incubation for about 1 h, the microplate was read on a Molecular Devices SpectraMax i3x multifunctional microplate reader. The kinase buffer, the STK-substrate 2-biotin, the detection buffer, the STK antibody-Cryptate, and the streptavidin-XL665 were all from HTRF KinEASE-STK kit (Cisbio, 1000 tests, 61[…]).

T1 sequence (Q13464 whole entry): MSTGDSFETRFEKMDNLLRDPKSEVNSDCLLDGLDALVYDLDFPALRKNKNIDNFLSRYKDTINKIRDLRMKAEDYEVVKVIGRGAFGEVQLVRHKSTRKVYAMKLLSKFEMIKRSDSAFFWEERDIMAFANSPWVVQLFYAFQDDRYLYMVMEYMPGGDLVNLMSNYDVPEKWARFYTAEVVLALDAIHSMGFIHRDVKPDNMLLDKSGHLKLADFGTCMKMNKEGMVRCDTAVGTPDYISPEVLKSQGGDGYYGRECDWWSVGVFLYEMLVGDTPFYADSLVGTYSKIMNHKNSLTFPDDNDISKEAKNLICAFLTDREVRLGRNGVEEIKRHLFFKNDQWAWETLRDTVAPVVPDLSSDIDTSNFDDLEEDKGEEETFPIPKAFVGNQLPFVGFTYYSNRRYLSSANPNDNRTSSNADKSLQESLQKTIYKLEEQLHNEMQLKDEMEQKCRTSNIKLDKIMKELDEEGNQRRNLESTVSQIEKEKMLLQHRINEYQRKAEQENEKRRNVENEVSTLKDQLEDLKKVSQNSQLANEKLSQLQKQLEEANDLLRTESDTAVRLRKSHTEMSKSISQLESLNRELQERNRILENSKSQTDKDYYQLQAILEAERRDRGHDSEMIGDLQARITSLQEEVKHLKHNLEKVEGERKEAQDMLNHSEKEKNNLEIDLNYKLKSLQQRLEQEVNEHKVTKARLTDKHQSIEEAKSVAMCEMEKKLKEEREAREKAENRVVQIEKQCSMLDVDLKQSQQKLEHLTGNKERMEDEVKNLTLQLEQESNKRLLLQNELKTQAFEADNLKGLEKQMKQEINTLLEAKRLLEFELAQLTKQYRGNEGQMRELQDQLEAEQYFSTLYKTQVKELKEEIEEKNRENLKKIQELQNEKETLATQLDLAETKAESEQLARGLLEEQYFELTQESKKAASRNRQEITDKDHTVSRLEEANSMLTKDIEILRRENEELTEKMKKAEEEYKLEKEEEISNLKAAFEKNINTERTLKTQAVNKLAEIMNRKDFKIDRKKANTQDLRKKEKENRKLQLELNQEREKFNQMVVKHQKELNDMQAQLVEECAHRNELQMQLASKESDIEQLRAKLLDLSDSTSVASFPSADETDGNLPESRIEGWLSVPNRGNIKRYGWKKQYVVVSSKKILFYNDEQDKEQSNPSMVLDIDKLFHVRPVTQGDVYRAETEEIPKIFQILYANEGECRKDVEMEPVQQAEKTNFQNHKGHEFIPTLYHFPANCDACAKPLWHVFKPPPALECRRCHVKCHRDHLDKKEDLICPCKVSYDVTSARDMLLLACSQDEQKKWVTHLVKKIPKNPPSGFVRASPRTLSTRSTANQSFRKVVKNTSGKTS
T2 sequence (O75116 whole entry): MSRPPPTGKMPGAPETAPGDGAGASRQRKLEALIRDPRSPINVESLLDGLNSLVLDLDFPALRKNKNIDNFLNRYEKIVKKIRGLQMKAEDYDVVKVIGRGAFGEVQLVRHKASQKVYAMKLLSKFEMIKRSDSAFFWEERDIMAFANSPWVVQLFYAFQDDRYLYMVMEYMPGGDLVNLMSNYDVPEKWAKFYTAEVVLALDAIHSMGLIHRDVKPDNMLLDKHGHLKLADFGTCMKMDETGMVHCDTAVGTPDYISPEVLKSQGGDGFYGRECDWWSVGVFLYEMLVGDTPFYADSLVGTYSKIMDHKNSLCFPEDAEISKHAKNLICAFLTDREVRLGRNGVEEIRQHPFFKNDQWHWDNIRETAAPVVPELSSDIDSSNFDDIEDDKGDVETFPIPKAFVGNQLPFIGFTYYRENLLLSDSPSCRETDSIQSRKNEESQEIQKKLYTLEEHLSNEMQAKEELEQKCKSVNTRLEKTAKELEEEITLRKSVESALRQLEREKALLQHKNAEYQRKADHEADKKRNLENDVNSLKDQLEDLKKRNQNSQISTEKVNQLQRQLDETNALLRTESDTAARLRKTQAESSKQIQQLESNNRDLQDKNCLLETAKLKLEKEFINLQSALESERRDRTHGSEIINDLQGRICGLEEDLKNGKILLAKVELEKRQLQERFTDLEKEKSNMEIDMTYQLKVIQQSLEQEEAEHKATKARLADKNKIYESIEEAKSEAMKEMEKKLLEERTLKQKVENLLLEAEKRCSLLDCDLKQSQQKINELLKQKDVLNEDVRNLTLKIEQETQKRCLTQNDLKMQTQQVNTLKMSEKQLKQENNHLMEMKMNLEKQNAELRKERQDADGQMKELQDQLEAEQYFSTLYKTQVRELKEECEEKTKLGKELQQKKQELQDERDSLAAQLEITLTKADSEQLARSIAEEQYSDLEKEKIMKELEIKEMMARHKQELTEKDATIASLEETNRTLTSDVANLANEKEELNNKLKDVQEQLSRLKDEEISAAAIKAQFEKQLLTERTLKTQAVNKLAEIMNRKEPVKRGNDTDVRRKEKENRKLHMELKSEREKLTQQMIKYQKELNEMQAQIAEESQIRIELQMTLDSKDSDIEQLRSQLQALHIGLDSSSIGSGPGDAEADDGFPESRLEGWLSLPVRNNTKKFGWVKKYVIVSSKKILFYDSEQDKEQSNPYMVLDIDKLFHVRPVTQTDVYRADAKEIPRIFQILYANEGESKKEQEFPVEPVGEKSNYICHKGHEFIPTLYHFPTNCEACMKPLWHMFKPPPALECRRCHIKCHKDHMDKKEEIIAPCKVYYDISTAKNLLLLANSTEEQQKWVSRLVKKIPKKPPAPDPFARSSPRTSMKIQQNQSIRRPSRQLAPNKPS

For orientation: IC50 means the midpoint of a concentration-inhibition curve. A high value points to lower potency. Take `COc1cc(F)cc(C(CN(C)C)NC(=O)N2CCc3cc(-c4c[nH]nc4F)c(F)cc32)c1` (racemic) [Compound T388, (+/−)N-(2-(dimethylamino)-1-(3-fluoro-5-methoxyphenyl)ethyl)-6-fluoro-5-(3-fluoro-1H-pyrazol-4-yl)indoline-1-carboxamide]: the values for the IC50 in assay [1] and in assay [2] were 50 to 500 nM and ≤ 50 nM, respectively. In the same order, the values of `COc1cc(F)cc(CN(C)C(=O)N2CCc3cc(-c4cn[nH]c4)ccc32)c1` [Compound T206, N-(3-fluoro-5-methoxybenzyl)-N-methyl-5-(1H-pyrazol-4-yl)indoline-1-carboxamide] are 500 to 5000 nM and 50 to 500 nM.

`O=C(NCc1ccccc1)N1CCc2cc(-c3cn[nH]c3)ccc21` [Compound T207, N-benzyl-5-(1H-pyrazol-4-yl)indoline-1-carboxamide]: the IC50 in assay [1] and in assay [2] was ≤ 50 nM throughout.

Turning to `COc1cc(F)cc(CNC(=O)N2CCc3ccc(-c4cn[nH]c4)cc3C2)c1` [Compound T208, N-(3-fluoro-5-methoxybenzyl)-7-(1H-pyrazol-4-yl)-3,4-dihydroisoquinoline-2(1H)-carboxamide], the IC50 in assay [1] and in assay [2] was ≤ 50 nM each time. As for `COc1cc(F)cc(CNC(=O)N2Cc3ccc(-c4cn[nH]c4)cc3C2)c1` [Compound T209, N-(3-fluoro-5-methoxybenzyl)-5-(1H-pyrazol-4-yl)isoindoline-2-carboxamide], the IC50 in assay [1] and in assay [2] was 50 to 500 nM throughout. In the case of `COc1cc(F)cc(CNC(=O)n2ccc3cc(-c4cn[nH]c4)ccc32)c1` [Compound T210], the half-inhibitory concentration (IC50) in assay [1] and in assay [2] was 50 to 500 nM throughout. Consider `COc1cc(F)cc(CN(CC2COC2)C(=O)N2CCc3cc(-c4cn[nH]c4)ccc32)c1` [Compound T212], for which the IC50 in assay [1] and in assay [2] was 500 to 5000 nM in each case.

As to `COCCOc1cc(F)cc(CNC(=O)N2CCc3cc(-c4cn[nH]c4)ccc32)c1` [Compound T213], the IC50 in assay [1] and in assay [2] was ≤ 50 nM each time. In the case of `COc1cc(F)cc(CN(C(=O)N2CCc3cc(-c4cn[nH]c4)ccc3C2)C2COC2)c1` [Compound T214], the IC50 in assay [1] and in assay [2] was 50 to 500 nM throughout. Consider `COc1cc(F)cc(CN(C(=O)N2CCc3cc(-c4cn[nH]c4)ccc32)C2CCOCC2)c1` [Compound T215], for which the IC50 in assay [1] and in assay [2] was 500 to 5000 nM each time.

As to `COc1cc(F)cc(CN(C(=O)N2CCc3cc(-c4cn[nH]c4)ccc3C2)C2CCOCC2)c1` [Compound T216], the IC50 in assay [1] and in assay [2] was 50 to 500 nM each time. For `COc1cc(F)cc(CNC(=O)N2CCc3cc(-c4c[nH]nn4)ccc32)c1` [Compound T217, N-(3-fluoro-5-methoxybenzyl)-5-(1H-1,2,3-triazol-4-yl)indoline-1-carboxamide], the IC50 in assay [1] and in assay [2] was 50 to 500 nM throughout.

Turning to `COc1cc(F)cc(CNC(=O)N2CCc3cc(-c4cn[nH]c4)cnc32)c1` [Compound T218, N-(3-fluoro-5-methoxybenzyl)-5-(1H-pyrazol-4-yl)-2,3-dihydro-1H-pyrrolo(2,3-b)pyridine-1-carboxamide], the results for the IC50 in assay [1] and in assay [2] were 50 to 500 nM and 500 to 5000 nM, respectively. For `COc1cc(F)cc(CNC(=O)N2CCc3cc(-c4cn[nH]c4)ncc32)c1` [Compound T219], the IC50 in assay [1] and in assay [2] was ≤ 50 nM throughout.

With `COc1cc(F)cc(CNC(=O)N2CCc3nc(-c4cn[nH]c4)ccc32)c1` [Compound T220, N-(3-fluoro-5-methoxybenzyl)-5-(1H-pyrazol-4-yl)-2,3-dihydro-1H-pyrrolo(3,2-b)pyridine-1-carboxamide], the IC50 in assay [1] and in assay [2] was 50 to 500 nM throughout.

For `COc1cc(F)cc(CNC(=O)N2CCc3cc(-c4cn[nH]c4)cc(Cl)c32)c1` [Compound T221, 7-chloro-N-(3-fluoro-5-methoxybenzyl)-5-(1H-pyrazol-4-yl)indoline-1-carboxamide], the IC50 in assay [1] and in assay [2] was 50 to 500 nM in each case. Consider `COc1cc(F)cc(CNC(=O)N2CCc3cc(-c4cn[nH]c4)c(Cl)cc32)c1` [Compound T222, 6-chloro-N-(3-fluoro-5-methoxybenzyl)-5-(1H-pyrazol-4-yl)indoline-1-carboxamide], for which the IC50 in assay [1] and in assay [2] was ≤ 50 nM each time.

Take `COc1cc(F)cc(CNC(=O)N2CC(C)(C)c3cc(-c4cn[nH]c4)ccc32)c1` [Compound T223]: the IC50 in assay [1] and in assay [2] was ≤ 50 nM in each case. Consider `COc1cc(F)cc(CNC(=O)N2CCc3nc(-c4cn[nH]c4)sc3C2)c1` [Compound T224, N-(3-fluoro-5-methoxybenzyl)-2-(1H-pyrazol-4-yl)-6,7-dihydrothiazolo[5,4-c]pyridine-5(4H)-carboxamide], for which the IC50 in assay [1] and in assay [2] was 50 to 500 nM throughout.

With `COc1cc(F)cc(CNC(=O)N2CCc3cc(-c4cn[nH]c4)c(F)cc32)c1` [Compound T225, 6-fluoro-N-(3-fluoro-5-methoxybenzyl)-5-(1H-pyrazol-4-yl)indoline-1-carboxamide], the IC50 in assay [1] and in assay [2] was ≤ 50 nM in each case. As for `O=C(NCc1cc(F)cc(F)c1)N1CCc2cc(-c3cn[nH]c3)ccc21` [Compound T226], the values for the IC50 in assay [1] and in assay [2] were 50 to 500 nM and ≤ 50 nM, respectively. With `COc1cc(CNC(=O)N2CCc3cc(-c4cn[nH]c4)ccc32)ccn1` [Compound T227], the IC50 in assay [1] and in assay [2] was ≤ 50 nM each time. Consider `COc1cc(F)cc(CNC(=O)N2CCc3c2cc(F)c(-c2cn[nH]c2)c3F)c1` [Compound T228, 4,6-difluoro-N-(3-fluoro-5-methoxybenzyl)-5-(1H-pyrazol-4-yl)indoline-1-carboxamide], for which the IC50 in assay [1] and in assay [2] was ≤ 50 nM in each case. For the compound `COc1cc(F)cc(CNC(=O)N2CCCc3nc(-c4cn[nH]c4)sc32)c1` [Compound T229], the IC50 in assay [1] and in assay [2] was ≤ 50 nM in each case. Consider `COc1cc(F)cc(CNC(=O)N2CCCc3sc(-c4cn[nH]c4)nc32)c1` [Compound T230], for which the IC50 in assay [1] and in assay [2] was 50 to 500 nM each time. Take `COc1cc(F)cc(CNC(=O)N2CCc3nc(-c4cn[nH]c4)ncc32)c1` [Compound T231]: the concentration for half-maximal inhibition (IC50) in assay [1] and in assay [2] was ≤ 50 nM each time. In the case of `COc1cc(F)cc(CNC(=O)c2cnc3cc(-c4cn[nH]c4)ccn23)c1` [Compound T233], the IC50 in assay [1] and in assay [2] was ≤ 50 nM throughout. For the compound `COc1cc(F)cc(CNC(=O)c2ncc3cc(-c4cn[nH]c4)ccn23)c1` [Compound T234], the IC50 in assay [1] and in assay [2] was ≤ 50 nM in each case.

As for `COc1cc(F)cc(CNC(=O)c2ccc3nc(-c4cn[nH]c4)ccn23)c1` [Compound T235], the IC50 in assay [1] and in assay [2] was ≤ 50 nM throughout. As to `COc1cc(F)cc(CNC(=O)c2nn(C)c3cc(-c4cn[nH]c4)ccc23)c1` [Compound T236], the IC50 in assay [1] and in assay [2] was ≤ 50 nM each time. Turning to `COc1cc(F)cc(CNC(=O)c2ccn3cc(-c4cn[nH]c4)ccc23)c1` [Compound T237], the IC50 in assay [1] and in assay [2] was ≤ 50 nM each time. Take `COc1cc(F)cc(CNC(=O)c2cnn3cc(-c4cn[nH]c4)ccc23)c1` [Compound T239]: the IC50 in assay [1] and in assay [2] was ≤ 50 nM throughout. As for `O=C(NCc1ccn[nH]1)N1CCc2cc(-c3cn[nH]c3)ccc21` [Compound T240], the IC50 in assay [1] and in assay [2] was 500 to 5000 nM throughout. As to `Cn1cc(CNC(=O)N2CCc3cc(-c4cn[nH]c4)ccc32)cn1` [Compound T241], the IC50 in assay [1] and in assay [2] was 50 to 500 nM in each case. For `Cn1cnc(CNC(=O)N2CCc3cc(-c4cn[nH]c4)ccc32)c1` [Compound T242], the IC50 in assay [1] and in assay [2] was 50 to 500 nM in each case. In the case of `COc1cc(F)cc(CN(Cc2ccccc2)C(=O)N2CCc3cc(-c4cn[nH]c4)ccc32)c1` [Compound T243], the IC50 in assay [1] and in assay [2] was 500 to 5000 nM in each case. With `COc1cccc(F)c1C(CO)NC(=O)N1CCc2cc(-c3cn[nH]c3)c(F)cc21` (stereo not shown) [Compound T363, 6-fluoro-N-(1-(2-fluoro-6-methoxyphenyl)-2-hydroxyethyl)-5-(1H-pyrazol-4-yl)indoline-1-carboxamide], the IC50 in assay [2] was in the range of 50 to 500 nM.
